Laboratory results from patent US8916702B2 (priority 2012, dated 2014).
Read-outs that look alike come from different tables or passages of the source.

System: HCV pseudoparticles (genotype 1a HCV E1 and E2 envelope, H77C isolate)
Test: microbe, parasite or virus in culture
Type: cell-based
Details: Hepatitis C virus
[1] = Huh-7, read-out: Activity (EC50 class), HCV pseudoparticles (genotype 1a, H77C) in Huh7 cells, EC50 expressed as class A/B
[2] = Huh-7, 48 h, read-out: Activity (EC50 class), HCV pseudoparticles, Huh7 cells, luciferase 2 days after infection, average of duplicates
[3] = Huh-7, 48 h, read-out: Activity (EC50 class), HCV pseudoparticle infection of Huh7 cells, luciferase 2 days after infection, EC50 expressed as class A/B
[4] = Huh-7, 48 h, HCV pseudoparticle infection of Huh7 cells, luciferase 2 days after infection, average of duplicates
[5] = Huh-7, 48 h, HCV pseudoparticles, Huh7 cells, luciferase 2 days after infection, average of duplicates
[6] = Huh-7, 48 h, HCV pseudoparticles (genotype 1a, H77C) in Huh7 cells, average of duplicate, luciferase 2 days after infection

## CC(C)(CNC(=O)C(=O)Nc1ccc2cc[nH]c2c1)CNC(=O)c1ccc(Nc2nc(NC3(c4ccc(Cl)cc4)CC3)nc(OCC(F)(F)F)n2)cc1 [Compound 3337]
[1]
  EC50: 0.01 to 10 nM

## CC(C)(CNC(=O)C(=O)Nc1nc2ccc(F)cc2s1)CNC(=O)c1ccc(Nc2nc(NC3(c4ccc(Cl)cc4)CC3)nc(OCC(F)(F)F)n2)cc1 [Compound 3804]
[2]
  EC50: 0.01 to 10 nM

## COC(=O)[C@@H](CCNC(=O)C(=O)NCC1(CN2CCN(C)CC2)CC1)NC(=O)c1ccc(Nc2nc(NC3(c4ccc(Cl)cc4)CC3)nc(OCC(F)(F)F)n2)cc1 [Compound 1388]
[3]
  EC50: 0.01 to 10 nM

## COC(=O)[C@H](CNC(=O)C(=O)NCCc1ccccc1F)NC(=O)c1ccc(Nc2nc(NC3(c4ccc(Cl)cc4)CC3)nc(OCC(F)(F)F)n2)cc1 [Compound 1290]
[3]
  EC50: 0.01 to 10 nM

## CC(C)(C)OC(=O)N1CCCC(CNC(=O)C(=O)NC[C@H](NC(=O)c2ccc(Nc3nc(NC4(c5ccc(Cl)cc5)CC4)nc(OCC(F)(F)F)n3)cc2)C(=O)O)C1 (some centres unmarked) [Compound 1468]
[3]
  EC50: 0.01 to 10 nM

## COC(=O)[C@H](CCNC(=O)C(=O)Nc1cc[nH]n1)NC(=O)c1ccc(Nc2nc(NC3(c4ccc(Cl)cc4)CC3)nc(OCC(F)(F)F)n2)cc1 [Compound 1223]
[3]
  EC50: 0.01 to 10 nM

## COc1cccc(CNC(=O)C(=O)NC[C@H](NC(=O)c2ccc(Nc3nc(NC4(c5ccc(Cl)cc5)CC4)nc(OCC(F)(F)F)n3)cc2)C(=O)O)c1 [Compound 1193]
[4]
  EC50: 0.52 nM
[3]
  EC50: 0.01 to 10 nM

## COC(=O)[C@H](CNC(=O)C(=O)Nc1ccc(C)nc1)NC(=O)c1ccc(Nc2nc(NC3(c4ccc(Cl)cc4)CC3)nc(OCC(F)(F)F)n2)cc1 [Compound 3711]
[2]
  EC50: 0.01 to 10 nM

## Cc1cc(NC(=O)C(=O)NCC(O)CNC(=O)c2ccc(Nc3nc(NC4(c5ccc(Cl)cc5)CC4)nc(OCC(F)(F)F)n3)cc2)no1 (centres unmarked) [Compound 3364]
[1]
  EC50: 0.01 to 10 nM

## COC(=O)[C@H](CNC(=O)C(=O)Nc1ccc(C(F)(F)F)nc1)NC(=O)c1ccc(Nc2nc(NC3(c4ccc(Cl)cc4)CC3)nc(OCC(F)(F)F)n2)cc1 [Compound 3716]
[5]
  EC50: 0.62 nM
[2]
  EC50: 0.01 to 10 nM

## O=C(NC[C@H](NC(=O)c1ccc(Nc2nc(NC3(c4ccc(Cl)cc4)CC3)nc(OCC(F)(F)F)n2)cc1)C(=O)O)C(=O)Nc1ccc(-c2ncco2)cc1 [Compound 3292]
[1]
  EC50: 0.01 to 10 nM

## COC(=O)[C@H](CNC(=O)C(=O)Nc1ccc(OCCc2ccccn2)cc1)NC(=O)c1ccc(Nc2nc(NC3(c4ccc(Cl)cc4)CC3)nc(OCC(F)(F)F)n2)cc1 [Compound 3198]
[6]
  EC50: 1.02 nM
[1]
  EC50: 0.01 to 10 nM

## O=C(NC/C(=N/C(=O)c1ccc(Nc2nc(NC3(c4ccc(Cl)cc4)CC3)nc(OCC(F)(F)F)n2)cc1)C(=O)O)C(=O)Nc1ccc(N2CCCC2=O)cc1 [Compound 3165]
[1]
  EC50: 0.01 to 10 nM

## Cc1cc(NC(=O)C(=O)N(C)CCCN(C)C(=O)c2ccc(Nc3nc(NC4(c5ccc(Cl)cc5)CC4)nc(OCC(F)(F)F)n3)cc2)no1 [Compound 3423]
[1]
  EC50: 0.01 to 10 nM

## CC(C)c1cccc(NC(=O)C(=O)NC[C@H](NC(=O)c2ccc(Nc3nc(NC4(c5ccc(Cl)cc5)CC4)nc(OCC(F)(F)F)n3)cc2)C(=O)O)c1 [Compound 3758]
[5]
  EC50: 0.54 nM
[2]
  EC50: 0.01 to 10 nM

## CN(CCCN(C)C(=O)c1ccc(Nc2nc(NC3(c4ccc(Cl)cc4)CC3)nc(OCC(F)(F)F)n2)cc1)C(=O)C(=O)Nc1ccccc1 [Compound 3428]
[1]
  EC50: 0.01 to 10 nM

## COC(=O)[C@H](CNC(=O)C(=O)NCC1CC1)NC(=O)c1ccc(Nc2nc(NC3(c4ccc(Cl)cc4)CC3)nc(OCC(F)(F)F)n2)cc1 [Compound 1461]
[3]
  EC50: 0.01 to 10 nM

## O=C(NCC[C@H](NC(=O)c1ccc(Nc2nc(NC3(c4ccc(Cl)cc4)CC3)nc(OCC(F)(F)F)n2)cc1)C(=O)O)C(=O)NCc1cc(F)cc(F)c1 [Compound 1192]
[3]
  EC50: 0.01 to 10 nM

## CC(CNC(=O)C(=O)Nc1ccccc1)CNC(=O)c1ccc(Nc2nc(NC3(c4ccc(Cl)cc4)CC3)nc(OCC(F)(F)F)n2)cc1 (centres unmarked) [Compound 3470]
[1]
  EC50: 0.01 to 10 nM

## O=C(NCC[C@H](NC(=O)c1ccc(Nc2nc(NC3(c4ccc(Cl)cc4)CC3)nc(OCC(F)(F)F)n2)cc1)C(=O)O)C(=O)Nc1cccc(Cl)c1 [Compound 1500]
[3]
  EC50: 0.01 to 10 nM

## COC(=O)[C@H](CNC(=O)C(=O)NCCc1cccnc1)NC(=O)c1ccc(Nc2nc(NC3(c4ccc(Cl)cc4)CC3)nc(OCC(F)(F)F)n2)cc1 [Compound 1293]
[4]
  EC50: 4.4 nM
[3]
  EC50: 0.01 to 10 nM

## COC(=O)[C@H](CCNC(=O)C(=O)NC1CCCCCCC1)NC(=O)c1ccc(Nc2nc(NC3(c4ccc(Cl)cc4)CC3)nc(OCC(F)(F)F)n2)cc1 [Compound 1104]
[3]
  EC50: 0.01 to 10 nM

## O=C(NCC[C@H](NC(=O)c1ccc(Nc2nc(NC3(c4ccc(Cl)cc4)CC3)nc(OCC(F)(F)F)n2)cc1)C(=O)O)C(=O)NCc1ccccc1 [Compound 1187]
[4]
  EC50: 0.08 nM
[3]
  EC50: 0.01 to 10 nM

## CC(C)(CNC(=O)C(=O)Nc1ccc(F)cc1)CNC(=O)c1ccc(Nc2nc(NC3(c4ccc(Cl)cc4)CC3)nc(OCC(F)(F)F)n2)cc1 [Compound 1479]
[3]
  EC50: 0.01 to 10 nM

## NC(=O)CCc1cccc(NC(=O)C(=O)NCC[C@H](NC(=O)c2ccc(Nc3nc(NC4(c5ccc(Cl)cc5)CC4)nc(OCC(F)(F)F)n3)cc2)C(=O)O)c1 [Compound 3663]
[2]
  EC50: 0.01 to 10 nM

## Cc1cc(NC(=O)C(=O)N(C)CCCNC(=O)c2ccc(Nc3nc(NC4(c5ccc(Cl)cc5)CC4)nc(OCC(F)(F)F)n3)cc2)no1 [Compound 3446]
[1]
  EC50: 0.01 to 10 nM

## COC(=O)[C@H](CNC(=O)C(=O)Nc1cccc(OC(F)F)c1)NC(=O)c1ccc(Nc2nc(NC3(c4ccc(Cl)cc4)CC3)nc(OCC(F)(F)F)n2)cc1 [Compound 3708]
[2]
  EC50: 0.01 to 10 nM

## CC(C)(CNC(=O)C(=O)Nc1nc2ccc(S(N)(=O)=O)cc2s1)CNC(=O)c1ccc(Nc2nc(NC3(c4ccc(Cl)cc4)CC3)nc(OCC(F)(F)F)n2)cc1 [Compound 3825]
[2]
  EC50: 0.01 to 10 nM

## O=C(NCC[C@H](NC(=O)c1ccc(Nc2nc(NC3(c4ccc(Cl)cc4)CC3)nc(OCC(F)(F)F)n2)cc1)C(=O)O)C(=O)Nc1ccc(OCC(F)(F)F)cc1 [Compound 3226]
[1]
  EC50: 0.01 to 10 nM

## COC(=O)[C@H](CNC(=O)C(=O)Nc1ccc(OCc2ccccc2)cc1)NC(=O)c1ccc(Nc2nc(NC3(c4ccc(Cl)cc4)CC3)nc(OCC(F)(F)F)n2)cc1 [Compound 3090]
[1]
  EC50: 0.01 to 10 nM

## NC(=O)C(=O)NC[C@H](NC(=O)c1ccc(Nc2nc(NC3(c4ccc(Cl)cc4)CC3)nc(OCC(F)(F)F)n2)cc1)C(=O)O [Compound 1005, (S)-3-(2-amino-2-oxoacetamido)-2-(4-(4-(1-(4-chlorophenyl)cyclopropylamino)-6-(2,2,2-trifluoroethoxy)-1,3,5-triazin-2-ylamino)benzamido)propanoic acid]
[3]
  EC50: 0.01 to 10 nM

## CC(C)(CNC(=O)C(=O)Nc1cccc(C(=O)Nc2ccccc2)c1)CNC(=O)c1ccc(Nc2nc(NC3(c4ccc(Cl)cc4)CC3)nc(OCC(F)(F)F)n2)cc1 [Compound 3669]
[2]
  EC50: 0.01 to 10 nM

## O=C(NC[C@H](NC(=O)c1ccc(Nc2nc(NC3(c4ccc(Cl)cc4)CC3)nc(OCC(F)(F)F)n2)cc1)C(=O)O)C(=O)Nc1cccc(S(=O)(=O)N2CCCCC2)c1 [Compound 3772]
[5]
  EC50: 7.42 nM
[2]
  EC50: 0.01 to 10 nM

## O=C(NCCC(NC(=O)c1ccc(Nc2nc(NC3(c4ccc(Cl)cc4)CC3)nc(OCC(F)(F)F)n2)cc1)C(=O)O)C(=O)Nc1ccc(CN2CCCCC2)cc1 (centres unmarked) [Compound 3534]
[6]
  EC50: 7.54 nM
[1]
  EC50: 0.01 to 10 nM

## Cc1nccn1-c1ccc(NC(=O)C(=O)NCC[C@H](NC(=O)c2ccc(Nc3nc(NC4(c5ccc(Cl)cc5)CC4)nc(OCC(F)(F)F)n3)cc2)C(=O)O)cc1 [Compound 3541]
[1]
  EC50: 10 to 1000 nM

## NC(=O)c1cccc(NC(=O)C(=O)NCC[C@H](NC(=O)c2ccc(Nc3nc(NC4(c5ccc(Cl)cc5)CC4)nc(OCC(F)(F)F)n3)cc2)C(=O)O)c1 [Compound 3615]
[2]
  EC50: 0.01 to 10 nM

## CC(C)(CNC(=O)C(=O)Nc1ccc(CC(=O)N2CCCC2)cc1)CNC(=O)c1ccc(Nc2nc(NC3(c4ccc(Cl)cc4)CC3)nc(OCC(F)(F)F)n2)cc1 [Compound 1592]
[3]
  EC50: 0.01 to 10 nM

## COc1cc(NC(=O)C(=O)NCC(C)(C)CNC(=O)c2ccc(Nc3nc(NC4(c5ccc(Cl)cc5)CC4)nc(OCC(F)(F)F)n3)cc2)ccc1-c1ccccc1 [Compound 3679]
[2]
  EC50: 0.01 to 10 nM

## CC(C)n1ccc(NC(=O)C(=O)NCC(C)(C)CNC(=O)c2ccc(Nc3nc(NC4(c5ccc(Cl)cc5)CC4)nc(OCC(F)(F)F)n3)cc2)n1 [Compound 3836]
[2]
  EC50: 0.01 to 10 nM

## O=C(NCC[C@H](NC(=O)c1ccc(Nc2nc(NC3(c4ccc(Cl)cc4)CC3)nc(OCC(F)(F)F)n2)cc1)C(=O)O)C(=O)Nc1ccc(N2CCCC2)nc1 [Compound 3645]
[2]
  EC50: 0.01 to 10 nM

## COC(=O)[C@H](CNC(=O)C(=O)NC1CCCCC1C)NC(=O)c1ccc(Nc2nc(NC3(c4ccc(Cl)cc4)CC3)nc(OCC(F)(F)F)n2)cc1 (some centres unmarked) [Compound 1061]
[4]
  EC50: 1.58 nM
[3]
  EC50: 0.01 to 10 nM

## Cc1cc(NC(=O)C(=O)N(CCO)CCCNC(=O)c2ccc(Nc3nc(NC4(c5ccc(Cl)cc5)CC4)nc(OCC(F)(F)F)n3)cc2)no1 [Compound 3500]
[1]
  EC50: 0.01 to 10 nM

## CC(C)(CNC(=O)C(=O)Nc1ccc(-c2nc3ccccc3o2)cc1)CNC(=O)c1ccc(Nc2nc(NC3(c4ccc(Cl)cc4)CC3)nc(OCC(F)(F)F)n2)cc1 [Compound 3831]
[2]
  EC50: 0.01 to 10 nM

## COC(=O)[C@H](CNC(=O)C(=O)Nc1ccc(-n2ccnc2C)cc1)NC(=O)c1ccc(Nc2nc(NC3(c4ccc(Cl)cc4)CC3)nc(OCC(F)(F)F)n2)cc1 [Compound 3203]
[6]
  EC50: 5.47 nM
[1]
  EC50: 0.01 to 10 nM

## CCOCCOc1ccc(NC(=O)C(=O)NC[C@H](NC(=O)c2ccc(Nc3nc(NC4(c5ccc(Cl)cc5)CC4)nc(OCC(F)(F)F)n3)cc2)C(=O)O)cc1 [Compound 3277]
[1]
  EC50: 0.01 to 10 nM

## COC(=O)[C@H](CNC(=O)C(=O)Nc1ccc(-c2csc(C)n2)cc1)NC(=O)c1ccc(Nc2nc(NC3(c4ccc(Cl)cc4)CC3)nc(OCC(F)(F)F)n2)cc1 [Compound 3190]
[1]
  EC50: 0.01 to 10 nM
